These results are taken from PMC3527430, “Total Synthesis of Septocylindrin B and C-Terminus Modified Analogues” (PLoS ONE, 2012).

Like-named read-outs stand apart in the source and are kept apart here. Square brackets hold non-standard residues; d marks the D form. Peptide text beside a SMILES is read from it. * marks the point of attachment. X2 = CCCCCCNC[C@H](Cc1ccccc1)N*; X3 = OCCCCCNC[C@H](Cc1ccccc1)N*; X1 = OCCNC[C@H](Cc1ccccc1)N*; Aib = CC(C)(N)C(=O)O

One experiment deals with Bacillus cereus. The experiment is classed as cell-based. As to the method:
(§1) All these peptides were tested for their antibacterial activity using standard minimal inhibitory concentration (MIC) assays exactly as described in Mattheus et al. […] They are identical except for the glutamine residues, which are replaced with methyl protected glutamic acid residues in ABCD-Phaol. Although ABCD-Phaol should be a functionally reliable model of its natural counterpart, the difference in activity can only be explained by the different interaction with the membrane of the amino acid residue side chains. The amide interaction positively influences activity, so the conversion of Glu(OMe) to Gln improves the activity.

A further experiment concerns Enterococcus faecalis. The format is cell-based. As to the method:
as §1

A further experiment relates to Bacillus subtilis. The experiment is classed as cell-based. The protocol:
as §1

For experiment [1], the system named is Staphylococcus aureus. The experiment is classed as cell-based. The protocol:
as §1

Experiment [2] concerns Bacillus cereus, Bacillus subtilis, Enterococcus faecalis, Staphylococcus aureus. Description: Antibacterial activity, MIC assays, overall statement on the bacteria tested. The experiment is classed as cell-based. The conditions noted are these: standard MIC assays; four bacteria tested. The protocol: as §1
Experiment [3] deals with Staphylococcus aureus. Particulars: natural Septocylindrin B; ref [1]; cited from earlier work. An excerpt: Table 1 Antibacterial activity (MIC, µM) of Septocylindrin B and selected analogues. ^a | column: Staphylococcus aureus
[4] abbreviates: standard MIC assay as described in Mattheus et al. [13], cell holds only footnote mark d.
The mark [5] stands for this setting: standard MIC assay as described in Mattheus et al. [13].

`COC(=O)CC[C@H](NC(=O)[C@H](C)NC(=O)C(C)(C)NC(=O)[C@H](C)NC(=O)C(C)(C)NC(=O)[C@@H]1CCCN1C(=O)C(C)(C)NC(C)=O)C(=O)NC(C)(C)C(=O)N[C@H](C(=O)NC(C)(C)C(=O)NCC(=O)N[C@@H](CC(C)C)C(=O)NC(C)(C)C(=O)N1CCC[C@H]1C(=O)N[C@H](C(=O)NC(C)(C)C(=O)NC(C)(C)C(=O)N[C@@H](CCC(=O)OC)C(=O)N[C@@H](CCC(=O)OC)C(=O)N[C@H](CNCCCCCO)Cc1ccccc1)C(C)C)C(C)C` [ABCD-Phaol-N5O, Ac-Aib1-Pro2-Aib3-Ala4-Aib5-Ala6-Glu(OMe)7-Aib8-Val9-Aib10-Gly11-Leu12-Aib13-Pro14-Val15-Aib16-Aib17-Glu(OMe)18-Glu(OMe)19-Phaol20-N5O] (Ac-[Aib]P[Aib]A[Aib]AE(OMe)[Aib]V[Aib]GL[Aib]PV[Aib][Aib]E(OMe)E(OMe)-X3): the “Antibacterial activity (MIC) Bacillus cereus” value in the experiment on Bacillus cereus amounted to 50 µM. Moreover, the “Antibacterial activity (MIC) Enterococcus faecalis” value in the experiment on Enterococcus faecalis is 1.5 µM. In addition, in the experiment with Bacillus subtilis, the “Antibacterial activity (MIC) Bacillus subtilis” value is >100 µM. For the same molecule, in the experiment on Staphylococcus aureus [1] (setting [4]), the “Antibacterial activity (MIC) Staphylococcus aureus” value is “^d (A reduced growth is clearly visible, but no MIC end point ≤100 µM)”.

For `CCCCCCNC[C@H](Cc1ccccc1)NC(=O)[C@H](CCC(=O)OC)NC(=O)[C@H](CCC(=O)OC)NC(=O)C(C)(C)NC(=O)C(C)(C)NC(=O)[C@@H](NC(=O)[C@@H]1CCCN1C(=O)C(C)(C)NC(=O)[C@H](CC(C)C)NC(=O)CNC(=O)C(C)(C)NC(=O)[C@@H](NC(=O)C(C)(C)NC(=O)[C@H](CCC(=O)OC)NC(=O)[C@H](C)NC(=O)C(C)(C)NC(=O)[C@H](C)NC(=O)C(C)(C)NC(=O)[C@@H]1CCCN1C(=O)C(C)(C)NC(C)=O)C(C)C)C(C)C` [ABCD-Phaol-N6, Ac-Aib1-Pro2-Aib3-Ala4-Aib5-Ala6-Glu(OMe)7-Aib8-Val9-Aib10-Gly11-Leu12-Aib13-Pro14-Val15-Aib16-Aib17-Glu(OMe)18-Glu(OMe)19-Phaol20-N6] (Ac-[Aib]P[Aib]A[Aib]AE(OMe)[Aib]V[Aib]GL[Aib]PV[Aib][Aib]E(OMe)E(OMe)-X2), in the experiment with Bacillus cereus, the “Antibacterial activity (MIC) Bacillus cereus” value is >100 µM. The “Antibacterial activity (MIC) Enterococcus faecalis” value in the experiment with Enterococcus faecalis was found to be 25 µM. In addition, in the experiment with Bacillus subtilis, the “Antibacterial activity (MIC) Bacillus subtilis” value is >100 µM. Also, the “Antibacterial activity (MIC) Staphylococcus aureus” value with Staphylococcus aureus [1] is reported as >100 µM.

As to `COC(=O)CC[C@H](NC(=O)[C@H](C)NC(=O)C(C)(C)NC(=O)[C@H](C)NC(=O)C(C)(C)NC(=O)[C@@H]1CCCN1C(=O)C(C)(C)NC(C)=O)C(=O)NC(C)(C)C(=O)N[C@H](C(=O)NC(C)(C)C(=O)NCC(=O)N[C@@H](CC(C)C)C(=O)NC(C)(C)C(=O)N1CCC[C@H]1C(=O)N[C@H](C(=O)NC(C)(C)C(=O)NC(C)(C)C(=O)N[C@@H](CCC(=O)OC)C(=O)N[C@@H](CCC(=O)OC)C(=O)N[C@H](CNCCO)Cc1ccccc1)C(C)C)C(C)C` [ABCD-Phaol] (Ac-[Aib]P[Aib]A[Aib]AE(OMe)[Aib]V[Aib]GL[Aib]PV[Aib][Aib]E(OMe)E(OMe)-X1), the “Antibacterial activity (MIC) Bacillus cereus” value in the experiment with Bacillus cereus is >50 µM. Also, the “Antibacterial activity (MIC) Enterococcus faecalis” value in the experiment with Enterococcus faecalis amounted to 6 µM. For the same molecule, the “Antibacterial activity (MIC) Bacillus subtilis” value in the experiment with Bacillus subtilis is reported as >50 µM. The “Antibacterial activity (MIC) Staphylococcus aureus” value with Staphylococcus aureus [1] is >50 µM.

With `CC(=O)NC(C)(C)C(=O)N1CCC[C@H]1C(=O)NC(C)(C)C(=O)N[C@@H](C)C(=O)NC(C)(C)C(=O)N[C@@H](C)C(=O)N[C@@H](CCC(N)=O)C(=O)NC(C)(C)C(=O)N[C@H](C(=O)NC(C)(C)C(=O)NCC(=O)N[C@@H](CC(C)C)C(=O)NC(C)(C)C(=O)N1CCC[C@H]1C(=O)N[C@H](C(=O)NC(C)(C)C(=O)NC(C)(C)C(=O)N[C@@H](CCC(N)=O)C(=O)N[C@@H](CCC(N)=O)C(=O)N[C@H](CNCCO)Cc1ccccc1)C(C)C)C(C)C` [Septocylindrin B synthetic] (Ac-[Aib]P[Aib]A[Aib]AQ[Aib]V[Aib]GL[Aib]PV[Aib][Aib]QQ-X1), in experiment [2], the “Antibacterial activity, result in words” value was “activity against all four bacteria tested”. Moreover, the “Antibacterial activity (MIC) Bacillus cereus” value in the experiment on Bacillus cereus is 6.25 µM. In the experiment on Enterococcus faecalis, the “Antibacterial activity (MIC) Enterococcus faecalis” value was determined as 6.25 µM. Moreover, the “Antibacterial activity (MIC) Bacillus subtilis” value in the experiment with Bacillus subtilis turned out to be 12.5 µM. For the same molecule, the “Antibacterial activity (MIC) Staphylococcus aureus” value is given as 12.5 µM in the experiment with Staphylococcus aureus [1] and 8 µM in the experiment with Staphylococcus aureus [3].

For the molecule “Ac-Aib1-Pro2-Aib3-Ala4-Aib5-Ala6-Glu(OMe)7-Aib8-Val9-Aib10-Gly11-Leu12-Aib13-Pro14-Val15-Aib16-Aib17-Glu(OMe)18-Glu(OMe)19- Phe20-ethanolamine [ABCD-Phe-ethanolamine]”, the “Antibacterial activity (MIC) Bacillus cereus” value in the experiment with Bacillus cereus (setting [5]) turned out to be 100 µM. The “Antibacterial activity (MIC) Enterococcus faecalis” value in the experiment on Enterococcus faecalis (setting [5]) worked out at 6 µM. Moreover, the “Antibacterial activity (MIC) Bacillus subtilis” value in the experiment on Bacillus subtilis (setting [5]) is >100 µM. The “Antibacterial activity (MIC) Staphylococcus aureus” value with Staphylococcus aureus [1] (setting [4]) is recorded as “^d (A reduced growth is clearly visible, but no MIC end point ≤100 µM)”.
